Data: US20240139158A1, “METHODS OF TREATING PULMONARY DISEASES AND DISORDERS” (Proteostasis Therapeutics, Inc., priority 2015, published 2024)

Target: T1, CFTR, genotype Non-CF (“wild-type”/“wild-type”) (Homo sapiens, UniProt P13569)
T1 construct: Non-CF; endogenous in cells
Assay: Activity by CFTR genotype with compound A (Example 79, Table 2)
Format: cell-based
Conditions: Relative Activity of 100% = Vehicle treated, 10 uM
Method: Table 2 indicates mutation type and activity with compounds/combination with compound A. ## indicates activity at 30 uM of 50% to <100% of the indicated relative activity treatment, #### indicates activity at 30 uM of ≥150% of the indicated relative activity treatment, + indicates activity at 10 uM of 15% to <50% of the indicated relative activity treatment, ++ indicates activity at 10 uM of 50% to <100% of the indicated relative activity treatment, +++ indicates activity at 10 uM of 100% to <150% of the indicated relative activity treatment, ++++ indicates activity at 10 uM of >150% of the indicated relative activity treatment. NB124 is used at 250 ug/ml, ivacaftor is used at 1 uM, lumacaftor is used at 3 uM, and VX-661 is used at 3 uM.

T1 sequence (P13569 whole entry): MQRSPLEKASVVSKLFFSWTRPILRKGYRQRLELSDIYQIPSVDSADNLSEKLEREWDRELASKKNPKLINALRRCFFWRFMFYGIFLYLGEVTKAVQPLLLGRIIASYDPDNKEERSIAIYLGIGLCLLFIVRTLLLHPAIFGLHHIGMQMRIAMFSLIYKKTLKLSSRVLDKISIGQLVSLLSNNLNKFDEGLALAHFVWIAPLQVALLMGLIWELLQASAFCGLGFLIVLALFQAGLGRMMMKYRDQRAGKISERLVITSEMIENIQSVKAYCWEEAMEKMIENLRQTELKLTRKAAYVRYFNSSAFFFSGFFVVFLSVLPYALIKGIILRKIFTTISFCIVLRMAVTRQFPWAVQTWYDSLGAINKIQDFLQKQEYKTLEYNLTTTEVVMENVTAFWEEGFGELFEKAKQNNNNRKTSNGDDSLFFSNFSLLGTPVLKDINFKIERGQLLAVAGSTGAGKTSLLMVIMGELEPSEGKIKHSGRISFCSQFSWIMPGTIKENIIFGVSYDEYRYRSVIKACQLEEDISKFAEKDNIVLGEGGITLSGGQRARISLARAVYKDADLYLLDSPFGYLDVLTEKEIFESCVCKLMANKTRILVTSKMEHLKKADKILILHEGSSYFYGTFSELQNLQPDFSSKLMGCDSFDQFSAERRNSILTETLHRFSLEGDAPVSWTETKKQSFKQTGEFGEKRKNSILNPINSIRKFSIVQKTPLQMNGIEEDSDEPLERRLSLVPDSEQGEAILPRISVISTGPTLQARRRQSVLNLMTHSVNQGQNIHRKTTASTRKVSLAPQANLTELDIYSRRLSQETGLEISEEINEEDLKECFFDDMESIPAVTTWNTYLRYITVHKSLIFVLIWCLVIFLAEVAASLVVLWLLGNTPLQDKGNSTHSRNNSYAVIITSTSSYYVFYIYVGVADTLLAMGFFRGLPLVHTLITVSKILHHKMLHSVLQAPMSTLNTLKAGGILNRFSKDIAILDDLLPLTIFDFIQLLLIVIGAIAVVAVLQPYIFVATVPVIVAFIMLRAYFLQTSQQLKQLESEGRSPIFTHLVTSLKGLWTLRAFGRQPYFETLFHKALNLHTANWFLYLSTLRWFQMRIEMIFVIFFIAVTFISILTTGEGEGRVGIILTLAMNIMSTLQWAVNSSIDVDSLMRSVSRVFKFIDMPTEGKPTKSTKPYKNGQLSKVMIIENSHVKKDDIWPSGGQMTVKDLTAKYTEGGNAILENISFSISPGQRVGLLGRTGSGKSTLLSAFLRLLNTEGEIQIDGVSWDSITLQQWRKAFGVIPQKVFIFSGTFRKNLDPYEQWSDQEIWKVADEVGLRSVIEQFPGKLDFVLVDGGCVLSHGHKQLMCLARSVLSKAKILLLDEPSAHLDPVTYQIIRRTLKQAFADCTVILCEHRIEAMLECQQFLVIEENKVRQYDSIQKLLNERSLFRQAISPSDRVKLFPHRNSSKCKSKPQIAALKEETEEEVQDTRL

C[C@@H](O)c1nnc(C2CC(NC(=O)c3cc(-c4ccccc4)no3)C2)o1 (stereo partly shown) [Compound A]
Stand Alone activity: +++ (activity at 10 uM of 100% to <150% of the indicated relative activity treatment)
